# Read-outs that look alike come from different tables or passages of the source.
# Columns and labels:
# A-2780 = assay: SRB assay, ovarian cancer cell line A-2780; type: cell-based; conditions: Homo sapiens, read-out: In vitro anticancer activity GI50, Ovarian A-2780
# Experimental: (§1) Single cell suspension of the tumour cells grown in tissue culture were made, cells counted and cell count adjusted to 1×10^5 to 5×10^5 cells/ml. Ninety six (96) well plates were seeded with this cell suspension, each well receiving 100 μl of it. The plate was then be incubated at 37° C. temperature in CO2 incubator for 24 hours. Drugs were added at concentrations after 24-hour incubation followed by further incubation for 48 hours. Experiment was terminated by gently layering the cells in the wells with 30% TCA and plates were kept in refrigerator for 1 hour following which they were washed thoroughly with tap water, dried attained with 0.4% SRB in 1% acetic aid and finally, the bound SRB eluted with 10 mM tris. Absorbance was read at 540 nm, in the microtitre-plate reader. Optical density of drug-treated cells was compared with that of control cells and cell inhibition was calculated as percent values. Each compound was tested at 10, 20, 40 and 80 μg/ml in triplicate on human malignant cell lines.
# MCF7 = assay: SRB assay, breast cancer cell line MCF7; type: cell-based; conditions: Homo sapiens, read-out: In vitro anticancer activity GI50, Breast MCF7
# Experimental: as §1
# Gurav = assay: SRB assay, oral cancer cell line Gurav; type: cell-based; conditions: Homo sapiens, read-out: In vitro anticancer activity GI50, Oral Gurav
# Experimental: as §1
# Colo205 = assay: SRB assay, colon cancer cell line Colo205; type: cell-based; conditions: Homo sapiens, read-out: In vitro anticancer activity GI50, Colon Colo205
# Experimental: as §1
# DWD = assay: SRB assay, oral cancer cell line DWD; type: cell-based; conditions: Homo sapiens, read-out: In vitro anticancer activity GI50, Oral DWD
# Experimental: as §1
# Zr-75-1 = assay: SRB assay, breast cancer cell line Zr-75-1; type: cell-based; conditions: Homo sapiens, read-out: In vitro anticancer activity GI50, Breast Zr-75-1
# Experimental: as §1
# Hop62 = assay: SRB assay, lung cancer cell line Hop62; type: cell-based; conditions: Homo sapiens, read-out: In vitro anticancer activity GI50, Lung Hop62
# Experimental: as §1
# A-549 = assay: SRB assay, lung cancer cell line A-549; type: cell-based; conditions: Homo sapiens, read-out: In vitro anticancer activity GI50, Lung A-549
# Experimental: as §1
# KB = assay: SRB assay, oral cancer cell line KB; type: cell-based; conditions: Homo sapiens, read-out: In vitro anticancer activity GI50, Oral KB
# Experimental: as §1
# [1] = SRB assay, 48 hours drug exposure
"GI50 (A-2780; A2780, SRB assay, 48 hours drug exposure)","GI50 (MCF7; MCF7, SRB assay, 48 hours drug exposure)",GI50 (Gurav; [1]),"GI50 (A-549; A549, SRB assay, 48 hours drug exposure)","GI50 (Colo205; COLO 205, SRB assay, 48 hours drug exposure)",GI50 (KB; [1]),GI50 (DWD; [1]),"GI50 (Zr-75-1; ZR-75-1, SRB assay, 48 hours drug exposure)","GI50 (Hop62; HOP-62, SRB assay, 48 hours drug exposure)",Compound,"GI50 (A-2780; A2780, 48 h)","GI50 (MCF7; MCF7, 48 h)",GI50 (Gurav; 48 h),"GI50 (Colo205; COLO 205, 48 h)",melting point,GI50 (DWD; 48 h),"GI50 (Zr-75-1; ZR-75-1, 48 h)","GI50 (Hop62; HOP-62, 48 h)","GI50 (A-549; A549, 48 h)",GI50 (KB; 48 h)
,,,,,,,,,"COc1ccc(/C=C(/C(=O)N[C@@H]2c3cc4c(cc3[C@@H](c3cc(OC)c(OC)c(OC)c3)[C@H]3C(=O)OC[C@@H]32)OCO4)c2cc(OC)c(OC)c(OC)c2)cc1 [Compound 3n, 4β-(E)-3-(4-methoxyphenyl)-2-(3,4,5-trimethoxyphenyl)acrylamidopodophyllotoxin]",2500 nM,2900 nM,2200 nM,170 nM,128 to 130 °C,2300 nM,2900 nM,,,
,,,,,,,,,"COc1cc(/C(=C\c2ccc([N+](=O)[O-])cc2)C(=O)N[C@@H]2c3cc4c(cc3[C@@H](c3cc(OC)c(OC)c(OC)c3)[C@H]3C(=O)OC[C@@H]32)OCO4)cc(OC)c1OC [Compound 3i, 4β-(E)-3-(4-nitrophenyl)-2-(3,4,5-trimethoxyphenyl)acrylamidopodophyllotoxin]",2600 nM,,2100 nM,2100 nM,187 to 190 °C,2400 nM,2200 nM,2700 nM,,
,,,,,,,,,"COc1ccc(/C=C(/C(=O)N[C@@H]2c3cc4c(cc3[C@@H](c3cc(OC)c(OC)c(OC)c3)[C@H]3C(=O)OC[C@@H]32)OCO4)c2cc(OC)c(OC)c(OC)c2)cc1[N+](=O)[O-] [Compound 3h, 4β-(E)-3-(4-methoxy-3-nitrophenyl)-2-(3,4,5-trimethoxyphenyl)acrylamidopodophyllotoxin]",2500 nM,,2600 nM,2700 nM,140 to 143 °C,2900 nM,2200 nM,2300 nM,,
,,,,,,,,,"COc1ccc(/C=C(/C(=O)N[C@@H]2c3cc4c(cc3[C@@H](c3cc(OC)c(OC)c(OC)c3)[C@H]3C(=O)OC[C@@H]32)OCO4)c2cc(OC)c(OC)c(OC)c2)cc1O [Compound 3b, 4β-(E)-3-(3-hydroxy-4-methoxyphenyl)-2-(3,4,5-trimethoxyphenyl)acrylamido podophyllotoxin]",,,,,145 to 147 °C,,,2900 nM,2900 nM,
,,,,,,,,,"COc1cc(/C(=C\c2ccccc2[N+](=O)[O-])C(=O)N[C@@H]2c3cc4c(cc3[C@@H](c3cc(OC)c(OC)c(OC)c3)[C@H]3C(=O)OC[C@@H]32)OCO4)cc(OC)c1OC [Compound 3k, 4β-(E)-3-(2-nitrophenyl)-2-(3,4,5-trimethoxyphenyl)acrylamidopodophyllotoxin]",2300 nM,,,,197 to 200 °C,,2500 nM,2700 nM,2500 nM,2700 nM
,,,,,,,,,"COc1cc(/C(=C\c2cccc([N+](=O)[O-])c2)C(=O)N[C@@H]2c3cc4c(cc3[C@@H](c3cc(OC)c(OC)c(OC)c3)[C@H]3C(=O)OC[C@@H]32)OCO4)cc(OC)c1OC [Compound 3j, 4β-(E)-3-(3-nitrophenyl)-2-(3,4,5-trimethoxyphenyl)acrylamido podophyllotoxin]",2500 nM,2700 nM,2100 nM,,181 to 184 °C,< 100 nM,,170 nM,2400 nM,
,,,,,,,,,"COc1cc(/C=C(/C(=O)N[C@@H]2c3cc4c(cc3[C@@H](c3cc(OC)c(OC)c(OC)c3)[C@H]3C(=O)OC[C@@H]32)OCO4)c2cc(OC)c(OC)c(OC)c2)ccc1F [Compound 3c, 4β-(E)-3-(4-fluoro-3-methoxyphenyl)-2-(3,4,5-trimethoxyphenyl)acrylamidopodophyllotoxin]",,,2400 nM,,144 to 146 °C,,2200 nM,2500 nM,,
,,,,,,,,,"COc1cc(/C(=C\c2ccc(O)cc2)C(=O)N[C@@H]2c3cc4c(cc3[C@@H](c3cc(OC)c(OC)c(OC)c3)[C@H]3C(=O)OC[C@@H]32)OCO4)cc(OC)c1OC [Compound 3p, 4β-(E)-3-(4-hydroxyphenyl)-2-(3,4,5-trimethoxyphenyl)acrylamidopodophyllotoxin]",,,2700 nM,,137 to 140 °C,2700 nM,2700 nM,2600 nM,2300 nM,2600 nM
,,,,,,,,,"COc1ccc(/C=C(/C(=O)N[C@@H]2c3cc4c(cc3[C@@H](c3cc(OC)c(OC)c(OC)c3)[C@H]3C(=O)OC[C@@H]32)OCO4)c2cc(OC)c(OC)c(OC)c2)c(F)c1 [Compound 3f, 4β-(E)-3-(2-fluoro-4-methoxyphenyl)-2-(3,4,5-trimethoxyphenyl)acrylamidopodophyllotoxin]",2700 nM,2400 nM,180 nM,,123 to 125 °C,190 nM,2500 nM,170 nM,2100 nM,2600 nM
< 100 nM,130 nM,< 100 nM,< 100 nM,< 100 nM,130 nM,100 nM,110 nM,150 nM,"COc1cccc2c1C(=O)c1c(O)c3c(c(O)c1C2=O)C[C@@](O)(C(=O)CO)C[C@@H]3O[C@H]1C[C@H](N)[C@H](O)[C@H](C)O1 [ADR, adriamycin, reference compound]",,,,,,,,,,
,,,,,,,,,"COc1ccc(F)c(/C=C(/C(=O)N[C@@H]2c3cc4c(cc3[C@@H](c3cc(OC)c(OC)c(OC)c3)[C@H]3C(=O)OC[C@@H]32)OCO4)c2cc(OC)c(OC)c(OC)c2)c1 [Compound 3e, 4β-(E)-3-(2-fluoro-5-methoxyphenyl)-2-(3,4,5-trimethoxyphenyl)acrylamidopodophyllotoxin]",,,2500 nM,,123 to 126 °C,,2700 nM,,,
,,,,,,,,,"COc1cc(/C=C(/C(=O)N[C@@H]2c3cc4c(cc3[C@@H](c3cc(OC)c(OC)c(OC)c3)[C@H]3C(=O)OC[C@@H]32)OCO4)c2cc(OC)c(OC)c(OC)c2)ccc1O [Compound 3a, 4β-(E)-3-(4-hydroxy-3-methoxyphenyl)-2-(3,4,5-trimethoxyphenyl)acrylamidopodophyllotoxin]",,,,,134 to 137 °C,,,2500 nM,2400 nM,
,,,,,,,,,"COc1ccccc1/C(=C\c1ccc([N+](=O)[O-])cc1)C(=O)N[C@@H]1c2cc3c(cc2[C@@H](c2cc(OC)c(OC)c(OC)c2)[C@H]2C(=O)OC[C@@H]21)OCO3 [Compound 3l, 4β-(E)-2-(2-methoxyphenyl)-3-(4-nitrophenyl)acrylamidopodophyllotoxin]",2300 nM,2700 nM,2100 nM,,181 to 183 °C,2300 nM,2100 nM,2000 nM,< 100 nM,2400 nM
,,,,,,,,,"COc1cc(/C(=C\c2ccc(O)c([N+](=O)[O-])c2)C(=O)N[C@@H]2c3cc4c(cc3[C@@H](c3cc(OC)c(OC)c(OC)c3)[C@H]3C(=O)OC[C@@H]32)OCO4)cc(OC)c1OC [Compound 3g, 4β-(E)-3-(4-hydroxy-3-nitrophenyl)-2-(3,4,5-trimethoxyphenyl)acrylamidopodophyllotoxin]",2200 nM,2700 nM,190 nM,2000 nM,,< 100 nM,180 nM,190 nM,,2200 nM
,,,,,,,,,"COc1ccccc1/C(=C\c1ccccc1[N+](=O)[O-])C(=O)N[C@@H]1c2cc3c(cc2[C@@H](c2cc(OC)c(OC)c(OC)c2)[C@H]2C(=O)OC[C@@H]21)OCO3 [Compound 3m, 4β-(E)-2-(2-methoxyphenyl)-3-(2-nitrophenyl)acrylamidopodophyllotoxin]",2200 nM,2800 nM,2200 nM,,187 to 190 °C,2300 nM,2200 nM,2100 nM,< 100 nM,2500 nM
,,,,,,,,,"COc1cccc(/C=C(/C(=O)N[C@@H]2c3cc4c(cc3[C@@H](c3cc(OC)c(OC)c(OC)c3)[C@H]3C(=O)OC[C@@H]32)OCO4)c2cc(OC)c(OC)c(OC)c2)c1 [Compound 3o, 4β-(E)-3-(3-methoxyphenyl)-2-(3,4,5-trimethoxyphenyl)acrylamidopodophyllotoxin]",< 100 nM,2700 nM,2100 nM,,187 to 190 °C,2200 nM,180 nM,180 nM,< 100 nM,2100 nM
